In one assay the target is Cathepsin D (Homo sapiens, UniProt P07339). Kind of assay: Inhibition of human cathepsin D by FRET assay.
A further assay has as its target Plasmepsin II (Plasmodium falciparum, UniProt P46925). Kind of assay: Inhibition of Plasmodium falciparum plasmepsin-2 by FRET assay.

Sequence of Plasmepsin II (P46925 whole entry): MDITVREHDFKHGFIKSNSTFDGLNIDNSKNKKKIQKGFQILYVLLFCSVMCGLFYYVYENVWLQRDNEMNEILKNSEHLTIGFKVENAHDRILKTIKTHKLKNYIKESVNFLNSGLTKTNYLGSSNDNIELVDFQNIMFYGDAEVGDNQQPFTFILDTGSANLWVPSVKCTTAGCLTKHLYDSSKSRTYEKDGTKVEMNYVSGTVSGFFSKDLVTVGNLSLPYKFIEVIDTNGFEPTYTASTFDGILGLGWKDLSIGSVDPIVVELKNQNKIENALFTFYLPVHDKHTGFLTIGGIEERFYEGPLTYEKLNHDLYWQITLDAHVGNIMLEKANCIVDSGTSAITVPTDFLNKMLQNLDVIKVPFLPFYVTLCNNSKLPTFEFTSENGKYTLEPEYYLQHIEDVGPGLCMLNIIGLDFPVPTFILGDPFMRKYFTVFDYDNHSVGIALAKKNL
Sequence of Cathepsin D (P07339 65-162 limits assumed): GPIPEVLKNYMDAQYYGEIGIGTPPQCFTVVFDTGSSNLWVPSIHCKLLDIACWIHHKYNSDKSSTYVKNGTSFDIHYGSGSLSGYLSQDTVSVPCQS
Sequence of Cathepsin D (P07339 169-412 limits assumed): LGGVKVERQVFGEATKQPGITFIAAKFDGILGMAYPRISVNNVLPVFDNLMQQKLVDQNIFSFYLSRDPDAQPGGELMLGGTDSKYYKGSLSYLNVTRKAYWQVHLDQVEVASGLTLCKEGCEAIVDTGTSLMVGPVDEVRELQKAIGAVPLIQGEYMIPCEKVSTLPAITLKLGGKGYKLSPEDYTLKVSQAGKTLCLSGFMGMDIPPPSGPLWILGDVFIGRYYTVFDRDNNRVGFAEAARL

For orientation: IC50 means the concentration that gives 50% inhibition. As for `Cc1ccc2c(NNC(=O)c3ccccc3O)c3ccccc3nc2c1C`, the half-maximal inhibitory concentration (IC50) against Cathepsin D was found to be 0.5 nM; on Plasmepsin II, 0.13 nM.

As for `Cc1cccc(C(=O)NNc2c3ccccc3nc3c(C)c(C)ccc23)c1`, the IC50 at Cathepsin D was 9 nM; at Plasmepsin II, 4 nM.

The molecule `CC(C)CC(=O)N[C@H](C(=O)N[C@H](C(=O)N[C@@H](CC(C)C)[C@@H](O)CC(=O)N[C@@H](C)C(=O)N[C@@H](CC(C)C)[C@@H](O)CC(=O)O)C(C)C)C(C)C` [PEPSTATIN] gave a concentration for half-maximal inhibition (IC50) on Plasmepsin II of 0.68 nM.

The record behind these values is ChEMBL document CHEMBL1145617, “Identification of acridinyl hydrazides as potent aspartic protease inhibitors” (Bioorg Med Chem Lett, 2008).
